Columns and labels:
[1] = test system: advanced and/or treatment-refractory solid tumors; test: Antitumor activity by RECIST v1.1, all solid tumors; format: in vivo, human
[2] = test system: solid tumor xenograft mouse models; conditions: preclinical, e.g., RCC, NSCLC, TNBC, hematologic malignancies; alone and in combination; cited from earlier work
[3] = Plasma pharmacokinetics of telaglenastat; format: in vivo, human
[4] = All dose expansion (N = 58), number (percent) of efficacy evaluable patients

SMILES: O=C(Cc1cccc(OC(F)(F)F)c1)Nc1ccc(CCCCc2nnc(NC(=O)Cc3ccccn3)s2)nn1 [telaglenastat, Telaglenastat]
- Best overall response: Partial response [1, 4]: 1 (1.7)
- Best overall response: Progressive disease [1, 4]: 33 (56.9)
- Best overall response: Stable disease [1, 4]: 24 (41.4)
- objective responses ([1]; BID or TID dose escalation cohorts): No objective responses
- patients with time on study ≥6 months ([1]; SDs across different tumor types): 12 patients
- patients with PR ([1]; dose expansion (in an RCC patient)): 1/58
- patients with SD ([1]; dose expansion, 24/58): 41.4%
- patients with PD ([1]; dose expansion, 33/58): 56.9%
- effect on tumor growth [2]: cytostatic-suppressive effects against tumor growth
- Cmin ([3]; RCC patient with PR (800 mg BID)): 1,490 ng/mL
- half-life ([3]; human, in vivo, 600 mg): 224 min
- AUC ([3]; human, in vivo, 800 mg): 19900 ng·h/mL
- AUC(0-t) ([3]; human, in vivo, 800 mg, AUC0–8h, steady state C1D15, 800 mg BID-fed (n = 10), mean (CV%)): 9660 ng·h/mL
- Cmax ([3]; human, in vivo, 800 mg, C max, steady state C1D15, 800 mg BID-fed (n = 10), mean (CV%)): 1770 ng/mL
- concentration at 15 day of cycle 1 ([3]; human, in vivo, 800 mg, C min, steady state C1D15, 800 mg BID-fed (n = 10), median (range)): 443 ng/mL
- Cmax ([3]; human, in vivo, 800 mg, Cmax, RCC patient with PR (800 mg BID)): 2960 ng/mL
- Tmax ([3]; human, in vivo, 800 mg, t max, steady state C1D15, 800 mg BID-fed (n = 10), (range)): 4 h
- C min ([3]; steady state C1D15, 1,000 mg BID-fed (n = 4), median (range)): 147 (73.2–221) ng/mL
